The values that follow are results of earlier work, collected in paper PMC8698672, “Selective Anticancer and Antimicrobial Metallodrugs Based on Gold(III) Dithiocarbamate Complexes” (Biomedicines, 2021).

Broadly, the IC50 is the midpoint of a concentration-inhibition curve.

The data set relates to Caco-2/TC7 tumor cells. Conditions: reference drugs, Caco-2 tumor cells; ref [27]; cited from earlier work.

As to `CC(=O)OC[C@H]1O[C@@H]([S-])[C@H](OC(C)=O)[C@@H](OC(C)=O)[C@@H]1OC(C)=O.CCP(CC)CC.[Au+]` [auranofin, 2,3,4,6-tetra-o-acetyl-1-thio-b-D-glucopyranosato-(S)-triethylphosphine gold(I)], the IC50 is 2.1 ± 0.4 µM.
